The NIST ThermoML archive (doi:10.1021/je700260f)
Numbers after ± are expanded uncertainties.

Conditions: 323.14 K, Liquid, Vibrating tube method

FC(C(F)(F)F)C(F)(F)F [1,1,1,2,3,3,3-heptafluoropropane]
Conditions	mass density [kg/m3]
10190 kPa	1363.3 ± 1.5
10206 kPa	1363.7 ± 1.5
10232 kPa	1363.8 ± 1.5
10249 kPa	1363.9 ± 1.5
10273 kPa	1364 ± 1.5
10288 kPa	1364 ± 1.5
10306 kPa	1364.3 ± 1.5
10331 kPa	1364.4 ± 1.5
10619 kPa	1366.6 ± 1.5
10640 kPa	1366.6 ± 1.5
10664 kPa	1366.8 ± 1.5
10682 kPa	1367 ± 1.5
10704 kPa	1367.2 ± 1.5
10722 kPa	1367.2 ± 1.5
10915 kPa	1368.6 ± 1.5
10935 kPa	1368.7 ± 1.5
10959 kPa	1368.8 ± 1.5
10980 kPa	1369 ± 1.5
10998 kPa	1369.1 ± 1.5
11021 kPa	1369.4 ± 1.5
11042 kPa	1369.4 ± 1.5
11057 kPa	1369.5 ± 1.5
11076 kPa	1369.7 ± 1.5
11096 kPa	1369.7 ± 1.5
11117 kPa	1370 ± 1.5
11135 kPa	1370.2 ± 1.5
11157 kPa	1370.3 ± 1.5
11177 kPa	1370.4 ± 1.5
11197 kPa	1370.5 ± 1.5
11213 kPa	1370.6 ± 1.5
11232 kPa	1370.9 ± 1.5
11253 kPa	1370.9 ± 1.5
11267 kPa	1370.9 ± 1.5
11292 kPa	1371.1 ± 1.5
11315 kPa	1371.3 ± 1.5
11336 kPa	1371.4 ± 1.5
11363 kPa	1371.8 ± 1.5
11565 kPa	1373.2 ± 1.5
11585 kPa	1373.1 ± 1.5
11609 kPa	1373.4 ± 1.5
11632 kPa	1373.4 ± 1.5
11649 kPa	1373.5 ± 1.5
11666 kPa	1373.6 ± 1.5
11689 kPa	1373.9 ± 1.5
11707 kPa	1374 ± 1.5
11729 kPa	1374.2 ± 1.5
11754 kPa	1374.2 ± 1.5
11777 kPa	1374.4 ± 1.5
11792 kPa	1374.5 ± 1.5
11810 kPa	1374.6 ± 1.5
11827 kPa	1374.8 ± 1.5
11848 kPa	1374.9 ± 1.5
11870 kPa	1375 ± 1.5
11893 kPa	1375.2 ± 1.5
11908 kPa	1375.3 ± 1.5
11927 kPa	1375.4 ± 1.5
11947 kPa	1375.6 ± 1.5
11965 kPa	1375.6 ± 1.5
11993 kPa	1375.7 ± 1.5
12013 kPa	1376 ± 1.5
12029 kPa	1376.1 ± 1.5
12054 kPa	1376.2 ± 1.5
12076 kPa	1376.4 ± 1.5
12099 kPa	1376.6 ± 1.5
12118 kPa	1376.8 ± 1.5
12139 kPa	1376.8 ± 1.5
12160 kPa	1377 ± 1.5
12176 kPa	1376.9 ± 1.5
12200 kPa	1377.2 ± 1.5
12222 kPa	1377.4 ± 1.5
12238 kPa	1377.4 ± 1.5
12262 kPa	1377.6 ± 1.5
12274 kPa	1377.8 ± 1.5
12293 kPa	1377.8 ± 1.5
12313 kPa	1377.9 ± 1.5
12329 kPa	1378.1 ± 1.5
12350 kPa	1378.1 ± 1.5
12373 kPa	1378.3 ± 1.5
12391 kPa	1378.5 ± 1.5
12410 kPa	1378.6 ± 1.5
12427 kPa	1378.8 ± 1.5
12447 kPa	1378.8 ± 1.5
12464 kPa	1378.9 ± 1.5
12483 kPa	1379.1 ± 1.5
12497 kPa	1379.2 ± 1.5
12514 kPa	1379.4 ± 1.5
12536 kPa	1379.3 ± 1.5
12551 kPa	1379.4 ± 1.5
12573 kPa	1379.6 ± 1.5
12589 kPa	1379.7 ± 1.5
12612 kPa	1379.9 ± 1.5
12627 kPa	1380 ± 1.5
12652 kPa	1380.2 ± 1.5
12677 kPa	1380.3 ± 1.5
12736 kPa	1380.7 ± 1.5
12755 kPa	1380.8 ± 1.5
13031 kPa	1382.6 ± 1.5
13052 kPa	1382.8 ± 1.5
13077 kPa	1382.9 ± 1.5
13095 kPa	1383 ± 1.5
13117 kPa	1382.9 ± 1.5
13141 kPa	1383.4 ± 1.5
